How the values were obtained:
[1] = biological target: Tyrosine-protein kinase Fyn (Homo sapiens, UniProt P06241); assay: (§1) Radioisotope Filter Binding Assay: IC50 Table 13-20: The protocol calls for test compound of the invention to be incubated with kinase, substrate, cofactors, and radio-isotope-labeled ATP (33P-gamma-ATP). The reaction mixtures are then spotted onto filter papers which bind the radioisotope labeled catalytic product. Unreacted phosphate is removed via washing. The reagents used include base reaction buffer; 20 mM Hepes (pH 7.5), 10 mM MgCl2, 1 mM EGTA, 0.02% Brij35, 0.02 mg/ml BSA, 0.1 mM Na3VO4, 2 mM DTT, 1% DMSO. The reaction procedure include the following steps: (1) prepare indicated substrate in freshly prepared base reaction buffer, (2) deliver any required cofactors to the substrate solution above, (3) deliver indicated kinase into the substrate solution and gently mix, (4) deliver compounds in DMSO into the kinase reaction mixture by Acoustic technology (Echo550; nanoliter range), incubate for 20 minutes at room temperature, (5) deliver 33P-ATP (specific activity 10 μCi/μL) into the reaction mixture to initiate the reaction, (6) incubate kinase reaction for 2 hours at room temperature, (7) reactions are spotted onto P81 ion exchange paper, (8) detect kinase activity by filter-binding method.
Sequence of Tyrosine-protein kinase Fyn (P06241 whole entry): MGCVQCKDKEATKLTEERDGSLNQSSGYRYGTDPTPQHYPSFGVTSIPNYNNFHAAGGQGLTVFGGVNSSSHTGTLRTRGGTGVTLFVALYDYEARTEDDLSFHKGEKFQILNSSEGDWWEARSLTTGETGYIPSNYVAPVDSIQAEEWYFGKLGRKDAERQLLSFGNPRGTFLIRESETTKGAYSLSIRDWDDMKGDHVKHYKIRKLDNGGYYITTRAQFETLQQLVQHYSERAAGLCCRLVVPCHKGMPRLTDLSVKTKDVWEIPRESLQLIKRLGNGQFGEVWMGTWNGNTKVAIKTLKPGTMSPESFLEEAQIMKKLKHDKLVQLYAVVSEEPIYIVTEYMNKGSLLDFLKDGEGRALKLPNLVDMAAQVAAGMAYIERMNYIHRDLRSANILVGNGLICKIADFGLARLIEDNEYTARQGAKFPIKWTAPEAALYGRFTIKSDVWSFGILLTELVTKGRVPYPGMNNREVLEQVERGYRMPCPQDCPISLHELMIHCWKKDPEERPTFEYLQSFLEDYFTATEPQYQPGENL

[2] = biological target: T1, Phosphatidylinositol 4,5-bisphosphate 3-kinase catalytic subunit delta isoform (Homo sapiens, UniProt O00329); assay: as §1
T1 sequence (O00329 whole entry): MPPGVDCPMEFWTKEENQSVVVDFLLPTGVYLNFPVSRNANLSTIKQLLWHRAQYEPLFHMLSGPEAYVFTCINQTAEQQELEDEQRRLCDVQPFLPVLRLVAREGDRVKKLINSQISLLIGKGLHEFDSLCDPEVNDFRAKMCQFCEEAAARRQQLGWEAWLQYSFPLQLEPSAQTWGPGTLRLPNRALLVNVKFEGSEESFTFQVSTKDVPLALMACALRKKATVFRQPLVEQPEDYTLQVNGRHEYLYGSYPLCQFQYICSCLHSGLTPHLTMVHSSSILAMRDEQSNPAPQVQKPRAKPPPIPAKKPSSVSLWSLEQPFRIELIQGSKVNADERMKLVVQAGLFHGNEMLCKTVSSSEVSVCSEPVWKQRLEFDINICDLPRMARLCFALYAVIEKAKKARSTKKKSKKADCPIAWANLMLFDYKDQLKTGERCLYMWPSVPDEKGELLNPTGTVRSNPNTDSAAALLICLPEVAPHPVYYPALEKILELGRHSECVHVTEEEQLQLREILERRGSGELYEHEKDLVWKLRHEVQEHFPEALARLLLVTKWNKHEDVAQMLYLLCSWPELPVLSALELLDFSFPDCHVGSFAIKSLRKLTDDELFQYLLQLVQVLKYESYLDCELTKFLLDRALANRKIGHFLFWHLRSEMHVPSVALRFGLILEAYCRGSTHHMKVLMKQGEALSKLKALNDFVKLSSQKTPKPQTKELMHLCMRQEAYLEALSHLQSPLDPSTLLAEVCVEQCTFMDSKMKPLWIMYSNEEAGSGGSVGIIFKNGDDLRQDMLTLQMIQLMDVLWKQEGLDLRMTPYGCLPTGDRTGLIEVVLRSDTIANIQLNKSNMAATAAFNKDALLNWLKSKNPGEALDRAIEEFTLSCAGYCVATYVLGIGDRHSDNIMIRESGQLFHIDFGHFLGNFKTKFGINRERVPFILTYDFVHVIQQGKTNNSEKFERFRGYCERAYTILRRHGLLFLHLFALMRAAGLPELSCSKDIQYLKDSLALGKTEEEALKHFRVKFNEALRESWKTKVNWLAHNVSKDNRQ

| IC50 [1] | IC50 [2] | Compound |
| --- | --- | --- |
| 750 nM | – | Nc1ncnc2c1c(-c1ccc(Oc3ccccc3)c(F)c1)nn2CC1SSCC1OC(=O)c1ccccc1 (configuration not stated) |
| – | 750 nM | Nc1nc2cc(-c3nn(C[C@@H]4SSC[C@H]4OC(=O)c4ccccc4)c4ncnc(N)c34)ccc2o1 (relative stereo) |

Reference: ChEMBL document CHEMBL5728119, “1,2-dithiolane compounds useful in neuroprotection, autoimmune and cancer diseases and conditions” (2020)
